What was measured:
Type in all cases: cell-based
rat CB2 receptor (rCB2) = biological target: T1, rat CB2 receptor (rCB2) (Rattus norvegicus, UniProt Q9QZN9); test: cell-based; details: intracellular cAMP, CHO-K1 cells, NKH-477 prestimulated, + agonist, − inverse agonist
T1 sequence (Q9QZN9 1-360): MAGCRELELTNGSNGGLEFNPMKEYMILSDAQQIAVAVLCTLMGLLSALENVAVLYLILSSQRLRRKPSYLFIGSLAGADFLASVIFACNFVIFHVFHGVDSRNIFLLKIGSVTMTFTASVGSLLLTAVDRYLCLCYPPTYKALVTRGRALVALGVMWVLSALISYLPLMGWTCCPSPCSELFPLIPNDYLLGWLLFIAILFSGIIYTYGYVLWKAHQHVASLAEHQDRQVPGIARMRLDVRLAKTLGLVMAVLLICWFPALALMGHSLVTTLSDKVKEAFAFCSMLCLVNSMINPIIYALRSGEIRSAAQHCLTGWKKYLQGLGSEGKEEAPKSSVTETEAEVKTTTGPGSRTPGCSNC

[1] = biological target: human CB2 receptor (hCB2) (Homo sapiens, UniProt P34972); test: cell-based; details: intracellular cAMP, CHO-K1 cells, NKH-477 prestimulated, + agonist, − inverse agonist
Chain of human CB2 receptor (hCB2) (P34972 whole entry): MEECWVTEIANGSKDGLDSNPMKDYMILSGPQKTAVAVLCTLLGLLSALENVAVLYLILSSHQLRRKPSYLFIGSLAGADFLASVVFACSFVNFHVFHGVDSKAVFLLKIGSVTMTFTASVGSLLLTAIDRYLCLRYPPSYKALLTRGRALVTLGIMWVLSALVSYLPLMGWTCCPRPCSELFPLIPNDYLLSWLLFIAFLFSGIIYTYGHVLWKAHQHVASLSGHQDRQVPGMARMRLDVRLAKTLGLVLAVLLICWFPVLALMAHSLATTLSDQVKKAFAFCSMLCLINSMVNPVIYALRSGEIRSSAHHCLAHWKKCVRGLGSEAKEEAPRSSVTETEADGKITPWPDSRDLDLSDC

[2] = biological target: human CB1 receptor (hCB1) (Homo sapiens, UniProt P21554); test: cAMP assay (LANCE TR-FRET) in CHO-K1 cells expressing hCB1; details: intracellular cAMP, NKH-477 prestimulated, + agonist, − inverse agonist
Chain of human CB1 receptor (hCB1) (P21554 whole entry): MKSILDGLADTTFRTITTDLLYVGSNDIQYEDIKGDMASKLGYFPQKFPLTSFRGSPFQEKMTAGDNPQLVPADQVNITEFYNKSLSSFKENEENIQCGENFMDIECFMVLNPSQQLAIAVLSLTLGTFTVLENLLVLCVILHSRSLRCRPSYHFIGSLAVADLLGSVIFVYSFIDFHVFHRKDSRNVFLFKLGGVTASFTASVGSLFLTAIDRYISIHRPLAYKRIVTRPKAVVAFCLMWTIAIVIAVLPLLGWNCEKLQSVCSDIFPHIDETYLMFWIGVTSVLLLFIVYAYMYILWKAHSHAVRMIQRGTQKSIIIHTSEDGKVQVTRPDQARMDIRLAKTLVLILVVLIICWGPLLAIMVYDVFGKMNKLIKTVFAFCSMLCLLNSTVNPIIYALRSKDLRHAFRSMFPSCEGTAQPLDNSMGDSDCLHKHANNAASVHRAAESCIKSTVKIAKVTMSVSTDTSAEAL

| SMILES | rCB2 EC50 range (rat CB2 receptor (rCB2)) | hCB2 EC50 range [1] | hCB1 EC50 range [2] | EC50 (rat CB2 receptor (rCB2); read-out: rCB2 EC50 range) | EC50 ([1]; read-out: hCB2 EC50 range) | EC50 ([2]; read-out: hCB1 EC50 range) |
| --- | --- | --- | --- | --- | --- | --- |
| CC(C)C(=O)N1CCSc2ccc(C(=O)NC34CC5CC(CC(C5)C3)C4)cc21 [Example 40, N-(1-adamantyl)-4-isobutyryl-3,4-dihydro-2H-benzo[b][1,4]thiazine-6-carboxamide] | −D | +D | −E |  |  |  |
| O=S(=O)(c1ccc(C(F)(F)F)cc1)N1CCSc2ccc(-c3nc4ccccc4o3)cc21 [Example 109, 2-(4-(4-(trifluoromethyl)phenylsulfonyl)-3,4-dihydro-2H-benzo[b][1,4]thiazin-6-yl)benzo[d]oxazole] | +B | +C | +D |  |  |  |
| Cc1ccc(C(=O)N2CCSc3ccc(C(=O)NC45CC6CC(CC(C6)C4)C5)cc32)cc1 [Example 23, N-(1-adamantyl)-4-(4-methylbenzoyl)-3,4-dihydro-2H-benzo[b][1,4]thiazine-6-carboxamide] | −D | −E | −E |  |  |  |
| COCCCNC(=O)c1ccc2c(c1)N(S(=O)(=O)c1ccc(F)cc1)CCS2 [Example 49, 4-(4-fluorophenylsulfonyl)-N-(3-methoxypropyl)-3,4-dihydro-2H-benzo[b][1,4]thiazine-6-carboxamide] | +A | +C | +E |  |  |  |
| COc1ccc(C(=O)N2CCSc3ccc(C(=O)NC45CC6CC(CC(C6)C4)C5)cc32)cc1 [Example 25, N-(1-adamantyl)-4-(4-methoxybenzoyl)-3,4-dihydro-2H-benzo[b][1,4]thiazine-6-carboxamide] | −D | −E | −E |  |  |  |
| CC(C)(C)c1noc(-c2ccc3c(c2)N(S(=O)(=O)c2ccccc2)CCS3)n1 [Example 84] | +A | +C | +E |  |  |  |
| CC(C)CNC(=O)c1ccc2c(c1)N(S(=O)(=O)c1ccc(F)cc1)CCO2 [Example 60, 4-(4-fluorophenylsulfonyl)-N-isobutyl-3,4-dihydro-2H-benzo[b][1,4] oxazine-6-carboxamide] | +B | +B | +D |  |  |  |
| CC(C)(C)c1noc(-c2ccc3c(c2)N(S(=O)(=O)c2ccc(C(F)(F)F)cc2)CCS3)n1 [Example 82, 3-tert-butyl-5-(4-(4-(trifluoromethyl)phenylsulfonyl)-3,4-dihydro-2H-benzo[b][1,4]thiazin-6-yl)-1,2,4-oxadiazole] | +B | +B | +D |  |  |  |
| CC(C)(C)NC(=O)c1ccc2c(c1)N(S(=O)(=O)c1ccccc1)CCC(C)(C)S2 [Example 91, N-tert-butyl-2,2-dimethyl-5-(phenylsulfonyl)-2,3,4,5-tetrahydrobenzo[b][1,4]thiazepine-7-carboxamide] | +B | +D | −E |  |  |  |
| O=S(=O)(c1ccc(F)cc1)N1CCSc2ccc(-c3ncc(-c4ccccc4)[nH]3)cc21 [Example 108, 4-(4-fluorophenylsulfonyl)-6-(5-phenyl-1H-imidazol-2-yl)-3,4-dihydro-2H-benzo[b][1,4]thiazine] | +B | +C | +E |  |  |  |
| O=S(=O)(c1ccc(F)cc1)N1CCSc2ccc(-c3nnc(-c4ccccc4)o3)cc21 [Example 104, 2-(4-(4-fluorophenylsulfonyl)-3,4-dihydro-2H-benzo[b][1,4]thiazin-6-yl)-5-phenyl-1,3,4-oxadiazole] | +B | +C | +D |  |  |  |
| CCc1noc(-c2ccc3c(c2)N(S(=O)(=O)c2ccc(F)cc2)CCS3)n1 [Example 90, 3-ethyl-5-(4-(4-fluorophenylsulfonyl)-3,4-dihydro-2H-benzo[b][1,4]thiazin-6-yl)-1,2,4-oxadiazole] | +A | +B | +D |  |  |  |
| O=C(NC1CCCC1)c1ccc2c(c1)N(S(=O)(=O)c1ccc(Cl)cc1)CCO2 [Example 63, 4-(4-chlorophenylsulfonyl)-N-cyclopentyl-3,4-dihydro-2H-benzo[b][1,4]oxazine-6-carboxamide] | +A | +B | +D |  |  |  |
| CC(C)CNC(=O)c1ccc2c(c1)N(S(=O)(=O)c1ccc(Cl)cc1)CCO2 [Example 58, 4-(4-chlorophenylsulfonyl)-N-isobutyl-3,4-dihydro-2H-benzo[b][1,4]oxazine-6-carboxamide] | +A | +B | +D |  |  |  |
| O=C(c1ccc2c(c1)N(S(=O)(=O)c1ccc(F)cc1)CCS2)N1CCCC1 [Example 71] | +C | +C | +E |  |  |  |
| COc1ccc(C(=O)N2CCSc3ccc(C(=O)NCC(C)C)cc32)cc1 [Example 5, N-isobutyl-4-(4-meth-oxybenzoyl)-3,4-di-hydro-2H-benzo[b] [1,4]thiazine-6-carboxamide] | −E | −E | −E |  |  |  |
| O=C(c1ccc2c(c1)N(S(=O)(=O)c1ccc(F)cc1)CCS2)N1CCOCC1 [Example 42, (4-(4-fluorophenylsulfonyl)-3,4-dihydro-2H-benzo[b][1,4]thiazin-6-yl)(morpholino)methanone] | +C | +D | +E |  |  |  |
| O=S(=O)(c1ccc(C(F)(F)F)cc1)N1CCSc2ccc(-c3nnc(-c4ccccc4)o3)cc21 [Example 105, 2-phenyl-5-(4-(4-(trifluoromethyl)phenylsulfonyl)-3,4-dihydro-2H-benzo[b][1,4]thiazin-6-yl)-1,3,4-oxadiazole] | +A | +C | +D |  |  |  |
| O=C(NC12CC3CC(CC(C3)C1)C2)c1ccc2c(c1)N(C(=O)c1ccc(Cl)cc1)CCS2 [Example 24, N-(1-adamantyl)-4-(4-chlorobenzoyl)-3,4-dihydro-2H-benzo[b][1,4]thiazine-6-carboxamide] | −D | −E | −E |  |  |  |
| CC1(C)CCN(S(=O)(=O)c2ccc(F)cc2)c2cc(C(=O)N3CCOCC3)ccc2S1 [Example 100, (5-(4-fluorophenyl-sulfonyl)-2,2-dimethyl-2,3,4,5-tetrahydro-benzo[b][1,4]thiazepin-7-yl) (morpholino)-methanone] | +C | +E | −E |  |  |  |
| C[C@H](NC(=O)c1ccc2c(c1)N(S(=O)(=O)c1ccccc1)CCC(C)(C)S2)C(C)(C)C [Example 98, (S)-N-(3,3-dimethyl-butan-2-yl)-2,2-dimethyl-5-(phenyl-sulfonyl)-2,3,4,5-tetrahydrobenzo[b][1,4] thiazepine-7-carboxamide] | −E | +D | −D |  |  |  |
| O=C(NC1CCCC1)c1ccc2c(c1)N(C(=O)c1ccccc1)CCS2 [Example 14, 4-benzoyl-N-cyclopentyl-3,4-dihydro-2H-benzo[b][1,4]thiazine-6-carboxamide] | −D | −E | −E |  |  |  |
| O=S(=O)(c1ccc(F)cc1)N1CCSc2ccc(-c3nc(-c4ccccn4)no3)cc21 [Example 83, 5-(4-(4-fluorophenylsulfonyl)-3,4-dihydro-2H-benzo[b][1,4]thiazin-6-yl)-3-(pyridin-2-yl)-1,2,4-oxadiazole] | +B | +C | +D |  |  |  |
| O=S(=O)(c1ccccc1)N1CCSc2ccc(-c3nc(-c4ccccn4)no3)cc21 [Example 87, 5-(4-(phenylsulfonyl)-3,4-dihydro-2H-benzo[b][1,4]thiazin-6-yl)-3-(pyridin-2-yl)-1,2,4-oxadiazole] |  |  |  | > 10 µM | > 10 µM | > 10 µM |
| CC(C)(C)NC(=O)c1ccc2c(c1)N(S(=O)(=O)c1ccc(F)cc1)CCS2 [Example 47, N-tert-butyl-4-(4-fluorophenylsulfonyl)-3,4-dihydro-2H-benzo[b][1,4]thiazine-6-carboxamide] | +A | +B | +E |  |  |  |
| CC1(C)CCN(S(=O)(=O)c2ccc(F)cc2)c2cc(C(=O)NC3CCCC3)ccc2S1 [Example 101, N-cyclopentyl-5-(4-fluorophenylsulfonyl)-2,2-dimethyl-2,3,4,5-tetrahydrobenzo[b][1,4] thiazepine-7-carboxamide] | −C | +E | −E |  |  |  |
| CCN(CC)C(=O)c1ccc2c(c1)N(S(=O)(=O)c1ccc(C(F)(F)F)cc1)CCS2 [Example 73, N,N-diethyl-4-(4-(trifluoromethyl)phenylsulfonyl)-3,4-dihydro-2H-benzo[b][1,4]thiazine-6-carboxamide] | +C | +C | +E |  |  |  |

From patent US7960376B2, “Benzo-fused heterocycles” (priority 2007, dated 2011)
